Data on four molecules can be found in US20020165141A1, “Methods for promoting dendritic cell proliferation or differentiation” (priority 2000, published 2002).

Entries after “also recorded” stand apart in the source; their conditions may differ.

A short description of test [1]: Tests of AII fragments for effectiveness (test not described). To be noted: test not specified.
In the next test the test system is dendritic cells. Nature of the test: Effect of angiotensin peptides on dendritic cell proliferation (cells per well by phase contrast microscopy). Type of test: cell-based, C57B1/6 mice. Conditions: cytokine(s) added to the cultures alone. The source says: Isolation of Dendritic Cells from Mice Treated with flt3 Ligand: Spleens were enriched in vivo with dendritic cells by stimulation with flt3 ligand (Marakovsky et al, 1996). C57B1/6 mice were subcutaneously injected with 4×10^6 flt3 ligand-secreting B16 melanoma cells prepared by transfection of murine flt3 ligand cDNA with the retroviral vector MFG. Spleen cells were harvested after the tumors reached 2-3 cm in diameter, at which time the spleens were 5-10 fold enlarged over those of untreated mice.
The spleens were harvested and the cells were dispersed through sterile screens. A single cell suspension of whole splenocytes was resuspended in a high-density BSA solution (1 ml/spleen) containing 10.6 g BSA, 18.6 ml PBS, 2.9 ml 1 N NaOH, and 6.5 ml water. After overlaying 2 ml of ice-cold RPMI, the splenocyte/BSA solution was centrifuged for 15 minutes at 9500 g. About 5×10^7 dendritic cells/spleen were recovered from the interface and resuspended in RPMI. […]
Culture of Dendritic Cells: Twenty four hours after isolation, these cells were counted and placed in culture in RPMI 1640 supplemented with 10% fetal calf serum, 2 mM 1 glutamine, 1 mM sodium pyruvate, 50 μM mercaptoethanol, 100 U/ml penicillin and 100 μg/ml streptomycin at a concentration of 1×10^3 cells/well of a 96 well plate. One third of the wells were counted at random to ensure even distribution of the cells to the wells. […]

On to His-Pro-Phe (HPF) [AII(6-8)], for which the effectiveness entry in test [1] is given as “not to be effective”.
With Tyr-Ile-His-Pro-Phe (YIHPF) [AII(4-8)], in test [1], the effectiveness entry was “not to be effective; also recorded: ineffective”.

B1: IL-6: murine recombinant Interleukin 6 (IL-6), 25 ng/ml (protein, UniProt P08505 25-211, looked up)
Interleukin-6: FPTSQVRRGDFTEDTTPNRPVYTTSQVGGLITHVLWEIVEMRKELCNGNSDCMNNDDALAENNLKLPEIQRNDGCYQTGYNQEICLLKISSGLLEYHSYLEYMKNNLKDNKKDKARVLQRDTETLIHIFNQEVKDLHKIVLPTPISNALLTDKLESQKEWLRTKTIQFILKSLEEFLKVTLRSTRQT
As for B1, the “number of cells per well / cellular proliferation, cytokine without angiotensin peptide” value with dendritic cells is listed as “did not affect the number of cells per well”.

B2: GM-CSF: murine recombinant granulocyte macrophage-colony stimulating factor, 50 ng/ml (protein, UniProt P01587 18-141, looked up)
Granulocyte-macrophage …: APTRSPITVTRPWKHVEAIKEALNLLDDMPVTLNEEVEVVSNEFSFKKLTCVQTRLKIFEQGLRGNFTKLKGALNMTASYYQTYCPPTPETDCETQVTTYADFIDSLKTFLTDIPFECKKPGQK
In the case of B2, in the test with dendritic cells, the “number of cells per well / cellular proliferation, cytokine without angiotensin peptide” value is “did not increase cellular proliferation”.
